Data reported in patent US10695334B2, “Heteroaromatic carboxamide derivatives as plasma kallikrein inhibitors” (Boehringer Ingelheim International GmbH, priority 2018, dated 2020).
Where a name gives a salt, the structure may show the parent alone.

Biological target: Human PKK (Homo sapiens (Human), UniProt P03952)
Experiment: Inhibition of PKK, endpoint assay (human PKK)
Format: biochemical
Details: substrate H-Pro-Phe-Arg-AMC, 1 h room temperature
Protocol: Subsequently, PPACK II (Calbiochem) was added as a stop solution to achieve a final concentration of 1 μM and fluorescence was measured using an Envision Reader (PerkinElmer) with the wavelength excitation setting of 355 nm and the wavelength emission setting of 460 nm.

Human PKK, sequence (P03952 391-638): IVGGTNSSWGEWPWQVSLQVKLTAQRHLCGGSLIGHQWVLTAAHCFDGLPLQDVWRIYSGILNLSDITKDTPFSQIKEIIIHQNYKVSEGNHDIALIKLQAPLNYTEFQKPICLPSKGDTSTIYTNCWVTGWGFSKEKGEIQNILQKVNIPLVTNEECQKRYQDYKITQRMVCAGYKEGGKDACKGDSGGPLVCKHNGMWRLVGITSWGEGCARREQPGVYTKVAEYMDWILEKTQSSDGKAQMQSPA
Human PKK, sequence (P03952 20-390 partner): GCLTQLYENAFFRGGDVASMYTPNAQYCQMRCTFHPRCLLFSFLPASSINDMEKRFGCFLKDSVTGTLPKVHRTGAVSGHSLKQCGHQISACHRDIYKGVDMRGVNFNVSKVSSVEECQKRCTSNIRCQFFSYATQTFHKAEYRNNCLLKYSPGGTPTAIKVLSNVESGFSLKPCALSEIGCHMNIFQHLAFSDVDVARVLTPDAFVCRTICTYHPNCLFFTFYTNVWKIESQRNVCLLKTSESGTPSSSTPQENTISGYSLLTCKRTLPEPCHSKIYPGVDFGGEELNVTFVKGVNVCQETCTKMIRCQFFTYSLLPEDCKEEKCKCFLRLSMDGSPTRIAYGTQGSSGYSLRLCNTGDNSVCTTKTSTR

Structure (SMILES) | IC50 [nM]
Cc1nc(N2CC(n3cccn3)C2)ccc1Cn1cc(C(=O)N[C@@H]2CCc3c2n[nH]c3C)cn1 [Example 58, N-[(6R)-3-Methyl-2H,4H,5H,6H-cyclopenta[c]pyrazol-6-yl]-1-({2-methyl-6[3-(1H-pyrazol-1-yl)azetidin-1-yl]pyridin-3-yl}methyl)-1H-pyrazole-4-carboxamide] | 20
Cc1nc(N2C[C@@H]3[C@@H](O)[C@@H]3C2)ccc1Cn1cc(C(=O)N[C@@H]2CCc3c2n[nH]c3C)cn1 [Example 59, 1-({6-[(1R,5S,6R)-6-Hydroxy-3-azabicyclo[3.1.0]hexan-3-yl]-2-methylpyridin-3-yl}methyl)-N-[(6R)-3-methyl-2H,4H,5H,6H-cyclopenta[c]pyrazol-6-yl]-1H-pyrazole-4-carboxamide] | 17
Cc1nc(N2CCC(C(F)(F)F)C2)ccc1Cn1cc(C(=O)N[C@@H]2CCc3c2n[nH]c3C)cn1 (stereo partly drawn) [Example 60, N-[(6R)-3-Methyl-2H,4H,5H,6H-cyclopenta[c]pyrazol-6-yl]-1-({2-methyl-6-[3-(trifluoromethyl)pyrrolidin-1-yl]pyridin-3-yl}methyl)-1H-pyrazole-4-carboxamide] | 7
Cc1nc(N2CC(C)C2)ccc1Cn1cc(C(=O)N[C@@H]2CCc3c2n[nH]c3C)cn1 [Example 61, N-[(6R)-3-Methyl-2H,4H,5H,6H-cyclopenta[c]pyrazol-6-yl]-1-{[2-methyl-6-(3-methylazetidin-1-yl)pyridin-3-yl]methyl}-1H-pyrazole-4-carboxamide] | 5
Cc1nc(N2CC3CCCC3C2)ccc1Cn1cc(C(=O)N[C@@H]2CCc3c2n[nH]c3C)cn1 (stereo partly drawn) [Example 62, N-[(6R)-3-Methyl-2H,4H,5H,6H-cyclopenta[c]pyrazol-6-yl]-1-[(2-methyl-6-{octahydrocyclopenta[c]pyrrol-2-yl}pyridin-3-yl)methyl]-1H-pyrazole-4-carboxamide] | 7
Cc1nc(N2CC3(CCOCC3)C2)ccc1Cn1cc(C(=O)N[C@@H]2CCc3c2n[nH]c3C)cn1 [Example 63, N-[(6R)-3-Methyl-2H,4H,5H,6H-cyclopenta[c]pyrazol-6-yl]-1-[(2-methyl-6-{7-oxa-2-azaspiro[3.5]nonan-2-yl]pyridin-3-yl)methyl]-1H-pyrazole-4-carboxamide] | 85
Cc1nc(N2CC3CC(C2)O3)ccc1Cn1cc(C(=O)N[C@@H]2CCc3c2n[nH]c3C)cn1 [Example 64, N-[(6R)-3-Methyl-2H,4H,5H,6H-cyclopenta[c]pyrazol-6-yl]-1-[(2-methyl-6-{6-oxa-3-azabicyclo[3.1.1]heptan-3-yl}pyridin-3-yl)methyl]-1H-pyrazole-4-carboxamide] | 32
Cc1nc(N2CCCCCC2)ccc1Cn1cc(C(=O)N[C@@H]2CCc3c2n[nH]c3C)cn1 [Example 65, 1-{[6-(Azepan-1-yl)-2-methylpyridin-3-yl]methyl}-N-[(6R)-3-methyl-2H,4H,5H,6H-cyclopenta[c]pyrazol-6-yl]-1H-pyrazole-4-carboxamide] | 10
Cc1nc(N2CCC3C(CC2)C3(F)F)ccc1Cn1cc(C(=O)N[C@@H]2CCc3c2n[nH]c3C)cn1 (stereo partly drawn) [Example 66, 1-[(6-{8,8-Difluoro-4-azabicyclo[5.1.0]octan-4-yl]-2-methylpyridin-3-yl)methyl]-N-[(6R)-3-methyl-2H,4H,5H,6H-cyclopenta[c]pyrazol-6-yl]-1H-pyrazole-4-carboxamide] | 51
Cc1nc(N2CC3CCC3C2)ccc1Cn1cc(C(=O)N[C@@H]2CCc3c2n[nH]c3C)cn1 (stereo partly drawn) [Example 68, 1-[(6-{3-Azabicyclo[3.2.0]heptan-3-yl}-2-methylpyridin-3-yl)methyl]-N-[(6R)-3-methyl-2H,4H,5H,6H-cyclopenta[c]pyrazol-6-yl]-1H-pyrazole-4-carboxamide] | 4
Cc1nc(N2CC(C(F)(F)F)C2)ccc1Cn1cc(C(=O)N[C@@H]2CCc3c2n[nH]c3C)cn1 [Example 69, N-[(6R)-3-Methyl-2H,4H,5H,6H-cyclopenta[c]pyrazol-6-yl]-1-({2-methyl-6-[3-(trifluoromethyl)azetidin-1-yl]pyridin-3-yl}methyl)-1H-pyrazole-4-carboxamide] | 17
Cc1nc(N2CC(C(C)C)C2)ccc1Cn1cc(C(=O)N[C@@H]2CCc3c2n[nH]c3C)cn1 [Example 70, N-[(6R)-3-Methyl-2H,4H,5H,6H-cyclopenta[c]pyrazol-6-yl]-1-({2-methyl-6-[3-(propan-2-yl)azetidin-1-yl]pyridin-3-yl}lmethyl)-1H-pyrazole-4-carboxamide] | 13
Cc1nc(N2C[C@H]3COC[C@H]3C2)ccc1Cn1cc(C(=O)N[C@@H]2CCc3c2n[nH]c3C)cn1 [Example 72, 1-({6-[(3aR,6aS)-Hexahydro-1H-furo[3,4-c]pyrrol-5-yl]-2-methylpyridin-3-yl}methyl)-N-[(6R)-3-methyl-2H,4H,5H,6H-cyclopenta[c]pyrazol-6-yl]-1H-pyrazole-4-carboxamide] | 36
Cc1nc(N2CCC3(CCOC3)C2)ccc1Cn1cc(C(=O)N[C@@H]2CCc3c2n[nH]c3C)cn1 (stereo partly drawn) [Example 73, N-[(6R)-3-Methyl-2H,4H,5H,6H-cyclopenta[c]pyrazol-6-yl]-1-[(2-methyl-6-{2-oxa-7-azaspiro[4.4]nonan-7-yl}pyridin-3-yl)methyl]-1H-pyrazole-4-carboxamide] | 17
Cc1nc(N2CC(F)(C(F)(F)F)C2)ccc1Cn1cc(C(=O)N[C@@H]2CCc3c2n[nH]c3C)cn1 [Example 74, 1-({6-[3-Fluoro-3-(trifluoromethyl)azetidin-1-yl]-2-methylpyridin-3-yl}methyl)-N-[(6R)-3-methyl-2H,4H,5H,6H-cyclopenta[c]pyrazol-6-yl]-1H-pyrazole-4-carboxamide] | 38
Cc1nc(N2C[C@@H]3CC(F)(F)C[C@@H]3C2)ccc1Cn1cc(C(=O)N[C@@H]2CCc3c2n[nH]c3C)cn1 [Example 75, 1-({6-[(3aR,6aS)-5,5-Difluoro-octahydrocyclopenta[c]pyrrol-2-yl]-2-methylpyridin-3-yl}-methyl)-N-[(6R)-3-methyl-2H,4H,5H,6H-cyclopenta[c]pyrazol-6-yl]-1H-pyrazole-4-carboxamide] | 19
Cc1nc(N2CC3(CC(O)C3)C2)ccc1Cn1cc(C(=O)N[C@@H]2CCc3c2n[nH]c3C)cn1 [Example 76, 1-[(6-{6-Hydroxy-2-azaspiro[3.3]heptan-2-yl}-2-methylpyridin-3-yl)methyl]-N-[(6R)-3-methyl-2H,4H,5H,6H-cyclopenta[c]pyrazol-6-yl]-1H-pyrazole-4-carboxamide] | 572
Cc1nc(N2CCC3(C2)CC3(F)F)ccc1Cn1cc(C(=O)N[C@@H]2CCc3c2n[nH]c3C)cn1 (stereo partly drawn) [Example 78, 1-[(6-{1,1-Difluoro-5-azaspiro[2.4]heptan-5-yl}-2-methylpyridin-3-yl)methyl]-N-[(6R)-3-methyl-2H,4H,5H,6H-cyclopenta[c]pyrazol-6-yl]-1H-pyrazole-4-carboxamide] | 9
Cc1nc(N2CC3C(C2)C3(C)C)ccc1Cn1cc(C(=O)N[C@@H]2CCc3c2n[nH]c3C)cn1 (stereo partly drawn) [Example 80, 1-[(6-{6,6-Dimethyl-3-azabicyclo[3.1.0]hexan-3-yl]-2-methylpyridin-3-yl)methyl]-N-[(6R)-3-methyl-2H,4H,5H,6H-cyclopenta[c]pyrazol-6-yl]-1H-pyrazole-4-carboxamide] | 9
Cc1nc(N2CC(c3ccc(F)cc3)C2)ccc1Cn1cc(C(=O)N[C@@H]2CCc3c2n[nH]c3C)cn1 [Example 81, 1-({6-[3-(4-Fluorophenyl)azetidin-1-yl]-2-methylpyridin-3-yl}methyl)-N-[(6R)-3-methyl-2H,4H,5H,6H-cyclopenta[c]pyrazol-6-yl]-1H-pyrazole-4-carboxamide] | 161
Cc1nc(N2CC[C@](C)(O)C2)ccc1Cn1cc(C(=O)N[C@@H]2CCc3c2n[nH]c3C)cn1 [Example 83, 1-({6-[(3S)-3-Hydroxy-3-methylpyrrolidin-1-yl]-2-methylpyridin-3-yl}methyl)-N-[(6R)-3-methyl-2H,4H,5H,6H-cyclopenta[c]pyrazol-6-yl]-1H-pyrazole-4-carboxamide] | 41
Cc1nc(N2CC3C(C2)C3(F)F)ncc1Cn1cc(C(=O)N[C@@H]2CCc3c2n[nH]c3C)cn1 (stereo partly drawn) [Example 84, 1-[(2-{6,6-Difluoro-3-azabicyclo[3.1.0]hexan-3-yl}-4-methylpyrimidin-5-yl)methyl]-N-[(6R)-3-methyl-2H,4H,5H,6H-cyclopenta[c]pyrazol-6-yl]-1H-pyrazole-4-carboxamide, TFA salt] | 2
Cc1nc(N2CC3C(C2)C3(F)F)ncc1Cn1cc(C(=O)N[C@@H]2CCc3c(C)n[nH]c32)nn1 (stereo partly drawn) [Example 85, 1-[(2-{6,6-Difluoro-3-azabicyclo[3.1.0]hexan-3-yl}-4-methylpyrimidin-5-yl)methyl]-N-[(6R)-3-methyl-1H,4H,5H,6H-cyclopenta[c]pyrazol-6-yl]-1H-1,2,3-triazole-4-carboxamide] | 4
Cc1nc(N2CC3CC3C2)ncc1Cn1cnc(C(=O)N[C@@H]2CCc3c2n[nH]c3C)c1 (stereo partly drawn) [Example 91, 1-[(2-{3-Azabicyclo[3.1.0]hexan-3-yl}-4-methyl-pyrimidin-5-yl)methyl]-N-[(6R)-3-methyl-2H,4H,5H,6H-cyclopenta[c]pyrazol-6-yl]-1H-imidazole-4-carboxamide] | 3
Cc1nc(N2C[C@@H]3[C@@H](CF)[C@@H]3C2)ccc1Cn1cc(C(=O)N[C@@H]2CCc3c2n[nH]c3C)cn1 [Example 95, 1-({6-[(1R,5S,6R)-6-(Fluoromethyl)-3-azabicyclo[3.1.0]hexan-3-yl]-2-methylpyridin-3-yl}methyl)-N-[(6R)-3-methyl-2H,4H,5H,6H-cyclopenta[c]pyrazol-6-yl]-1H-pyrazole-4-carboxamide] | 4
Cc1nc(N2CC3CC3C2)ccc1Cn1cc(C(=O)N[C@@H]2CCc3c2n[nH]c3C)c(C(C)(C)O)n1 (stereo partly drawn) [Example 106, 1-[(6-{3-Azabicyclo[3.1.0]hexan-3-yl}-2-methylpyridin-3-yl)methyl]-3-(2-hydroxypropan-2-yl)-N-[(6R)-3-methy-2H,4H,5H,6H-cyclopenta[c]pyrazol-6-yl]-1H-pyrazole-4-carboxamide] | 0.9
